The structures appear in SMILES notation. ± gives the expanded uncertainty stated by the source.

For this series the following is noted: 101.33 kPa, Liquid; for viscosity: Falling or rolling sphere viscometry; for mass density: Vibrating tube method.

In the case of `NCCO.O=CO` [2-hydroxyethylammonium formate], the viscosity (as a rule, the resistance of a fluid to flow) by setting is: (293.15 K) 67.61 ± 1.1 mPa·s; (298.15 K) 52.01 ± 0.61 mPa·s; (303.15 K) 40.51 ± 0.52 mPa·s; (323.15 K) 18.19 ± 0.26 mPa·s; (343.15 K) 9.698 ± 0.14 mPa·s. Further, the mass density – broadly, mass per unit of volume – is reported as 1178.5 ± 25 kg/m3 (293.15 K); 1175.1 ± 25 kg/m3 (298.15 K); 1171.7 ± 25 kg/m3 (303.15 K); 1158.1 ± 25 kg/m3 (323.15 K); 1144.3 ± 25 kg/m3 (343.15 K).
In the case of `O=C[O-].OCC[NH2+]CCO` [diethanolammonium formate], the viscosity (293.15 K) is given as 807.6 ± 98 mPa·s; the viscosity (298.15 K) is on record as 533.41 ± 56 mPa·s; the viscosity (303.15 K) was 369.63 ± 32 mPa·s; the viscosity (323.15 K) is 106.16 ± 3.9 mPa·s; the viscosity (343.15 K) is on record as 41.09 ± 0.8 mPa·s. Further, the mass density is, setting by setting: (293.15 K) 1205 ± 25 kg/m3; (298.15 K) 1201.7 ± 25 kg/m3; (303.15 K) 1198.3 ± 25 kg/m3; (323.15 K) 1185 ± 25 kg/m3; (343.15 K) 1171.7 ± 25 kg/m3.

Values taken from the NIST ThermoML archive (doi:10.1016/j.jct.2012.05.001).
